In patent EP0333004A2, “Light sensitive diazonium compounds, process for their preparation and their use” (priority 1988, dated 1989):

Columns and labels:
Solubility in water = format: physicochemical; details: 20 °C
[1] = Combustion number (Brennziffer, BZ), safety characteristic; format: physicochemical; details: solid isolated diazonium salt form
[2] = Dust explosion class (ST), safety characteristic; format: physicochemical; details: solid isolated diazonium salt form
[3] = Onset of exothermic decomposition (EZ); format: physicochemical; details: for Exotherme Zer-setzung (EZ): temperature at which exothermic decomposition begins
[4] = Differential thermal analysis (DTA), violence of decomposition; format: physicochemical; details: characterises the violence of decomposition
Explosion hazard = format: physicochemical
Impact sensitivity = format: physicochemical
[5] = species and route not given; cited from earlier work

Row | Molecule | Löslichkeit in Wasser (Solubility in water) | Brenn-ziffer (BZ) [1] | Staubexplo-sionsklasse (ST) [2] | exotherme Zersetzung, höher als bei dem entsprechenden Zinkchlorid-Doppelsalz ([3]; difference to the corresponding zinc chloride double salt) [°C] | Exotherme Zer-setzung (EZ) [3] [°C] | Differential-thermoanalyse (DTA) [4] [kJ/kg] | explosions-gefährlich (Explosion hazard) | schlagemp-findlich (Impact sensitivity) | solubility (Solubility in water; read-out: Löslichkeit in Wasser) [µg/mL] | LD₅₀-Wert (LD - Letale Dosis) [5] [mg/kg]
1 | 4-N,N-Dimethylaminobenzoldiazonium-sulfosalicylat [Sulfosalicylat R1=R2=CH3 R3 = H] | 10,4 g/l | 3 | 1 | 40 | 140 | -490 | nein | nein |  | 
2 | 4-N,N-Dimethylaminobenzoldiazoniumchlorzinkat [ZnCl2 stabilisiert R1=R2=CH3 R3 = H, reference compound] |  | 3 | 0 |  | 100 | -720 | nein | nein |  | 
3 | CN(C)c1ccc([N+]#N)cc1 [4-N,N-Dimethylaminobenzoldiazonium-sulfoisophthalat, reference compound] |  |  |  |  |  |  |  |  | 3800 | 
4 | Cc1cc([N+]#N)ccc1N1CCCC1 [Sulfosalicylat R1,R2=(CH2)4 R3 = CH3, 3-Methyl-4-N-pyrrolidinobenzoldiazonium-sulfosalicylat] |  | 3 | 1 |  | 120 | -400 | nein | nein |  | 
5 | O=C(O)c1cc(S(=O)(=O)O)ccc1O [Sulfosalicylsäure] |  |  |  |  |  |  |  |  |  | 2450
